Where “and” joins values, the source holds several entries; their conditions need not be identical. Equal entries are not always repeated.
Columns and labels:
[1] = Phase 2 study (P03573): bleeding in primary (PCI) cohort; format: in vivo, humans; details: for non-TIMI bleeding: Arterial Access, patients (%) / non-TIMI bleeding: Contusion/Bruise, patients (%) / non-TIMI bleeding: Expistaxis, patients (%) / non-TIMI bleeding: GI, patients (%) / non-TIMI bleeding: Genitourinary, patients (%) / non-TIMI bleeding: Gingival, patients (%) / non-TIMI bleeding: Incidental Cuts, patients (%) / non-TIMI bleeding: Vascular Puncture, patients (%): primary PCI cohort; for Any bleed, patients (%) / TIMI Major bleeding, patients (%) / TIMI Major/Minor bleeding, patients (%) / non-TIMI bleeding (overall), patients (%) / TIMI Minor bleeding, patients (%): primary cohort (PCI), 60 days
Excerpt: The behavior of SCH 530348 in humans was further studied in a Phase 2 clinical development program. A key safety issue for SCH 530348 is the potential for incremental bleeding when added to standard of care with other oral antiplatelet therapies as well as parenteral antithrombotics. Therefore, a single Phase 2 study (P03573) was completed to evaluate the safety of SCH 530348 in patients at high risk of bleeding events, i.e., those patients undergoing non-emergent PCI (percutaneous coronary intervention). The goals of this Phase 2 study were to: • Evaluate the safety of SCH 530348 in addition to standard of care with respect to TIMI major and minor bleeding; and, • Observe the effects of SCH 530348 on major adverse cardiac events (“MACE”) in patients successfully completing an interventional procedure.
The primary endpoint (directed to evaluating safety) was the combined […] (“TIMI”) major and TIMI minor bleeding over sixty days in the primary evaluable cohort. Though the study was not powered to evaluate efficacy, a secondary endpoint (directed to evaluating efficacy) was the incidence of the composite of death and major adverse cardiac events (“MACE”) in the primary cohort. MACE includes myocardial infarction, urgent revascularization, and ischemia requiring hospitalization. Pharmacokinetics and pharmacodynamics were assessed at selected sites across the treatment groups. Other secondary endpoints included the incidence of TIMI major and minor bleeding in the secondary evaluable cohort i.e., those individuals who received the loading dose only.

platelets [2] = assay: ADP-induced platelet aggregation; format: in vivo, humans; details: loading and maintenance doses
Procedure: (§1) A pharmacodynamic substudy incorporating light aggregometry was performed under stringent physiologic conditions and read by a central core laboratory. […] The term “therpeutically effective amount of a thrombin receptor antagonist” will be understood to mean that quantity of the thrombin receptor antagonist sufficient to achieve at least 80% inhibition of TRAP mediated platelet aggregation.
(§2) Similarly, there is no effect on arachidonic acid (“AA”) -induced platelet aggregation (see FIGS. 16 and 17) or collagen-induced platelet aggregation (see FIGS. 18-21).

human platelets = assay: TRAP stimulated human platelet aggregation; format: cell-based
Excerpt: Schering-Plough Corp. is developing SCH 530348, which is a selective inhibitor of the primary thrombin receptor, PAR-1 (protease-activated receptor-1), on human platelets. […] Current clinical development of SCH 530348 is directed toward approval of a therapy that is adjunctive to current standard of care, e.g., the ADP antagonist clopidogrel and aspirin. However, an avoidance of bleeding risk by administration of an appropriate thrombin receptor antagonist as a monotherapy may have potential advantages over some of the currently approved antiplatelet drugs such as Plavix® (clopidogrel) and Ticlid® (ticolpidine) in certain situations such as PCI. Furthermore, the standard of care may evolve to encompass other ADP antagonists such as prasugrel. The treatment of PCI patients by administration of a thrombin receptor antagonist as adjunctive therapy to the standard of care encompasses future standards of care such as prasugrel, or any other ADP antagonist, and aspirin.

Coagulation parameters = assay: Coagulation parameters; design: species or system humans; details: in vivo
Excerpt: as §2

[3] = monkey, in vivo
platelets [4] = assay: Pharmacodynamic substudy: TRAP induced platelet aggregation (light aggregometry); format: in vivo, humans; details: for Tested population achieving clinically relevant inhibition of platelet aggregation: thirty and sixty days; for Maximum inhibition of TRAP-induced platelet aggregation: 1-2 hours post dose
Procedure: as §1

platelets [5] = assay: Collagen-induced platelet aggregation; format: in vivo, humans; details: collagen 5 and 50 μg/ml; loading and maintenance doses
Procedure: as §1, §2

CCOC(=O)N[C@@H]1CC[C@@H]2[C@@H](C1)C[C@H]1C(=O)O[C@H](C)[C@H]1[C@H]2/C=C/c1ccc(-c2cccc(F)c2)cn1.O=S(=O)(O)O [SCH 530348, ethyl [(1R,3aR,4aR,6R,8aR,9S,9aS)-9-[(E)-2-[5-(3-fluorophenyl)-2-pyridinyl]ethenyl]-dodecahydro-1-methyl-3-oxonaphtho[2,3-c]furan-6-yl] carbamate bisulfate]
non-TIMI bleeding: Arterial Access, patients (%) ([1]; 10 mg loading dose): 11% | non-TIMI bleeding: Contusion/Bruise, patients (%) ([1]; 10 mg loading dose): 10% | non-TIMI bleeding: Expistaxis, patients (%) ([1]; 10 mg loading dose): 6% | non-TIMI bleeding: GI, patients (%) ([1]; 10 mg loading dose): 2 (2%) | non-TIMI bleeding: Genitourinary, patients (%) ([1]; 10 mg loading dose): 3% | non-TIMI bleeding: Gingival, patients (%) ([1]; 10 mg loading dose): 2 (2%) | non-TIMI bleeding: Incidental Cuts, patients (%) ([1]; 10 mg loading dose): 4% | non-TIMI bleeding: Vascular Puncture, patients (%) ([1]; 10 mg loading dose): 12% | non-TIMI bleeding: Arterial Access, patients (%) ([1]; 20 mg loading dose): 17% | non-TIMI bleeding: Contusion/Bruise, patients (%) ([1]; 20 mg loading dose): 17% | non-TIMI bleeding: Expistaxis, patients (%) ([1]; 20 mg loading dose): 5% | non-TIMI bleeding: GI, patients (%) ([1]; 20 mg loading dose): 1 (1%) | non-TIMI bleeding: Genitourinary, patients (%) ([1]; 20 mg loading dose): 5% | non-TIMI bleeding: Gingival, patients (%) ([1]; 20 mg loading dose): 1 (1%) | non-TIMI bleeding: Incidental Cuts, patients (%) ([1]; 20 mg loading dose): 13% | non-TIMI bleeding: Vascular Puncture, patients (%) ([1]; 20 mg loading dose): 18% | non-TIMI bleeding: Arterial Access, patients (%) ([1]; 40 mg loading dose): 14% | non-TIMI bleeding: Contusion/Bruise, patients (%) ([1]; 40 mg loading dose): 18% | non-TIMI bleeding: Expistaxis, patients (%) ([1]; 40 mg loading dose): 5% | non-TIMI bleeding: GI, patients (%) ([1]; 40 mg loading dose): 3% | non-TIMI bleeding: Genitourinary, patients (%) ([1]; 40 mg loading dose): 2% | non-TIMI bleeding: Gingival, patients (%) ([1]; 40 mg loading dose): 1% | non-TIMI bleeding: Incidental Cuts, patients (%) ([1]; 40 mg loading dose): 10% | non-TIMI bleeding: Vascular Puncture, patients (%) ([1]; 40 mg loading dose): 15% | non-TIMI bleeding: Arterial Access, patients (%) ([1]; All SCH 530348): 14% | non-TIMI bleeding: Contusion/Bruise, patients (%) ([1]; All SCH 530348): 15% | non-TIMI bleeding: Expistaxis, patients (%) ([1]; All SCH 530348): 5% | non-TIMI bleeding: GI, patients (%) ([1]; All SCH 530348): 2% | non-TIMI bleeding: Genitourinary, patients (%) ([1]; All SCH 530348): 3% | non-TIMI bleeding: Gingival, patients (%) ([1]; All SCH 530348): 1% | non-TIMI bleeding: Incidental Cuts, patients (%) ([1]; All SCH 530348): 9% | non-TIMI bleeding: Vascular Puncture, patients (%) ([1]; All SCH 530348): 15% | Any bleed, patients (%) ([1]; 10 mg loading dose): 37% | TIMI Major bleeding, patients (%) ([1]; 10 mg loading dose): 1.6% | TIMI Major/Minor bleeding, patients (%) ([1]; 10 mg loading dose): 1.6% | non-TIMI bleeding (overall), patients (%) ([1]; 10 mg loading dose): 36% | Any bleed, patients (%) ([1]; 20 mg loading dose): 43% | TIMI Major/Minor bleeding, patients (%) ([1]; 20 mg loading dose): 2.5% | TIMI Minor bleeding, patients (%) ([1]; 20 mg loading dose): 2.5% | non-TIMI bleeding (overall), patients (%) ([1]; 20 mg loading dose): 43% | Any bleed, patients (%) ([1]; 40 mg loading dose): 45% | TIMI Major bleeding, patients (%) ([1]; 40 mg loading dose): 0.6% | TIMI Major/Minor bleeding, patients (%) ([1]; 40 mg loading dose): 4.0% | TIMI Minor bleeding, patients (%) ([1]; 40 mg loading dose): 3.4% | non-TIMI bleeding (overall), patients (%) ([1]; 40 mg loading dose): 42% and 43% | Any bleed, patients (%) ([1]; All SCH 530348): 42% | TIMI Major bleeding, patients (%) ([1]; All SCH 530348): 0.7% | TIMI Minor bleeding, patients (%) ([1]; All SCH 530348): 2.1% | non-TIMI bleeding (overall), patients (%) ([1]; All SCH 530348): 41% and 40% | TIMI Major/Minor bleeding, patients (%) ([1]; All SCH 530348, primary safety endpoint): 2.8% | Effect on ADP-induced platelet aggregation (platelets [2]): no effect | IC50 (human platelets): 15 nM | Affecting coagulation parameters (Coagulation parameters): without | QT prolongation [3]: no evidence of QT prolongation | Tested population achieving clinically relevant inhibition of platelet aggregation (platelets [4]; 1.0 mg/day maintenance): 100% | Tested population achieving clinically relevant inhibition of platelet aggregation (platelets [4]; 2.5 mg/day maintenance): 100% | Maximum inhibition of TRAP-induced platelet aggregation (platelets [4]; 20 mg): > 80% | Time to therapeutically effective levels (at least 80%) of platelet inhibition (platelets [4]; 40 mg loading dose): in as little as one hour | Tested population with clinically relevant platelet aggregation inhibition within 2 hours (platelets [4]; 40 mg loading dose (only this dose)): more than 90% | Patients with ≧80% inhibition of TRAP induced platelet aggregation (platelets [4]; 40 mg loading dose, 1 hour): Approximately 68% | Patients with ≧80% inhibition of TRAP induced platelet aggregation (platelets [4]; 40 mg loading dose, 1.5 hours): ~82% | Patients with ≧80% inhibition of TRAP induced platelet aggregation (platelets [4]; 40 mg loading dose, 2 hours): ~96% | Maximum inhibition of TRAP-induced platelet aggregation (platelets [4]; 40 mg): > 80% | Inhibition of platelet aggregation at thirty and sixty days (platelets [4]; all three maintenance doses (0.5, 1.0, 2.5 mg)): clinically relevant inhibition of platelet aggregation | Inhibition of TRAP-induced platelet aggregation, dose dependency (platelets [4]; in vivo): dose-related inhibition | Inhibition of TRAP-induced platelet aggregation (platelets [4]; multiple doses of 1 mg/day): significantly inhibited | Inhibition of TRAP-induced platelet aggregation (platelets [4]; single doses as low as 5 mg): significantly inhibited | Effect on collagen-induced platelet aggregation (platelets [5]): no effect
